Legend:
rhizavidin [1] = test: binding of rhizavidin to ligands assessed for affinity chromatography; parameters: species or system Rhizobium etli; settings: for binding to rhizavidin: ligand assessed for affinity chromatography
rhizavidin [2] = test: affinity column purification of rhizavidin with immobilized ligand; parameters: species or system Rhizobium etli; settings: data not shown
Method: The following steps can be followed to prepare a LA-matrix for use in the methods as disclosed herein: • i. Resuspend CARBOXYLINK™ Coupling Resin (Life technologies, 20266) and aliquot 1 ml of suspended resin into an empty column, e.g., a bio-rad Econo-Pac Chromatography Column, allow resin to settle. Wash the resin with approx.20 ml of water and add 10 ml of PBS (×1) to equilibrate resin. • ii. Prepare a 100 mg/ml solution of Sulfo-NHS by dissolving 50 mg of Sulfo-NHS (N-hydroxysulfosuccinimide) in 0.5 ml of 0.1M MES buffer. • iii. Prepare a Sulfo-NHS/LA mixture by adding 0.25 ml of ethanol and 0.25 ml of 50 mg/ml LA stock solution (12.5 mg of LA) to 0.5 ml of Sulfo-NHS (100 mg/ml). • iv. To cross link the LA to the resin, dissolve 25 mg of EDC in 0.75 ml of coupling buffer and immediately add to Sulfo-NHS/LA mixture. Incubate the EDC/Sulfo-NHS/LA mixture with rotation for 30 min RT. Adjust the pH of the EDC/Sulfo-NHS/LA mixture to pH 7.0 by adding 1M Na2HPO4 (pH11) (approx. 0.5 ml of 1M Na2HPO4) • v. Resuspend the equilibrated CARBOXYLINK™ Coupling Resin with EDC/Sulfo-NHS/LA mixture and transfer everything to a 5 ml tube, incubate with rotation overnight RT. • vi. Transfer resin into an empty column, allow LA resin/LA matrix to settle. Wash resin with the following reagents in the following order; (i) 20 ml of wash buffer, (ii) 20 ml of H2O, (iii) Wash resin comprising 5 ml of 20% ethanol. Store LA resin/LA matrix in 20% ethanol until use.
The following steps can be followed in the methods as disclosed herein to purify a biotin-binding protein, e.g., rhizavidin or a rhiavidin fusion protein using a LA-matrix from a bacterial suspension expressing the rhizavidin or a rhiavidin fusion protein: • v. Collect E. coli culture by centrifugation, discard supernatant, and resuspend pelleted cells with a lysis buffer (20 mM Tris, 1M NaCl, pH8.0) containing DNase, proteinase inhibitors and 10 mM MgCl2. […] Transfer resin into an empty column after incubation and wash the LA resin with wash buffer (50% ethanol, 20 mM Tris, 1M NaCl) until no protein is detected in flow through • ix. […]

streptavidin = streptavidin (Streptomyces avidinii, UniProt P22629); settings: cited from earlier work

Row | affinity of binding to rhizavidin (rhizavidin [1]) | affinity of rhizavidin for lipoic acid compared with polyhistadine tag for nickel (rhizavidin [1]) | Compound | effectiveness of column comprising the ligand at purifying rhizavidin (rhizavidin [2]) | binding to rhizavidin (rhizavidin [1]) | binding to streptavidin (streptavidin)
1 | micromolar affinity | approximately the same as histadine | O=C(O)CCCCC1CCSS1 (stereo not drawn) [lipoic acid, 1,2-dithione-3-pentanoic acid] | effective |  | 
2 |  |  | Cc1cc(N=Nc2ccccc2C(=O)O)cc(C)c1O [dimethyl-HABA] | not effective | did not bind | bind with high affinity
3 |  |  | O=C(O)c1ccccc1N=Nc1ccc(O)cc1 [HABA, hydrooxyazobenzene-benzoic acid] | not effective | did not bind | bind with high affinity
